Laboratory results published in article PMC9418190, “UDP-glucose, cereblon-dependent proinsulin degrader” (Scientific Reports, 2022).

Biological target: T1, cereblon (Mus musculus, UniProt Q8C7D2)
T1 construct: gene Crbn
T1 sequence (Q8C7D2 1-445): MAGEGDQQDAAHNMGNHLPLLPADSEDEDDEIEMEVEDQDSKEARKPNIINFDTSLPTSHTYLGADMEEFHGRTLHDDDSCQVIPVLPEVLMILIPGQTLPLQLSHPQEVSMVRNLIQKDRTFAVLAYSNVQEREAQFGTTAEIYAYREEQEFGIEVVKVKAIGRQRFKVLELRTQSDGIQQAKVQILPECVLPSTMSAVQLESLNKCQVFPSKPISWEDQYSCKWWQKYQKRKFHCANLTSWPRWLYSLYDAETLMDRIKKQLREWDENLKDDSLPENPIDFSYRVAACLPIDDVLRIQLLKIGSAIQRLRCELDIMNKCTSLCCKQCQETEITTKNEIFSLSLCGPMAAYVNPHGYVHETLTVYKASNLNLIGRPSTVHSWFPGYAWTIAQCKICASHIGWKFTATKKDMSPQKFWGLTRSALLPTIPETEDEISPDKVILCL
Assay: dose-dependent protection of proinsulin from cereblon-dependent degradation in NIT1 cells
Assay type: cell-based

## O=C1CCC(=O)N1 [succinimide]
  dose-dependent protection of proinsulin from cereblon-dependent degradation in N: In fact, succinimide binds to cereblon, protects proinsulin degradation from proinsulin degrader X in a dose-dependent manner
